Among the data in PubChem BioAssay (NCI) are GI50 and TGI values, retold here.

Among the test systems are BT-549 breast; MDA-MB-231 breast; MDA-MB-435; SK-MEL-2 melanoma; SNB-75 CNS; SR leukemia; T-47D breast; DLD-1 colon; SNB-78 CNS.
What all share (experiment): NCI tumour cell line growth inhibition, 48 h

The structures appear in SMILES notation.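 1) Cells in 96-well plates. 2) Compound, 48 h, 5 concentrations. 3) Linear interpolation between surrounding doses. 4) Unreached endpoint = highest concentration. GI50 is the concentration that inhibits growth by half. TGI marks complete inhibition of growth.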

As for `Cc1cccc(Cc2cnc(NC(=O)CCCOc3ccc(Cl)cc3)s2)c1`, the GI50 in the test on BT-549 breast is greater than 100 µM; with MDA-MB-231 breast, 21.2 µM; in the test with MDA-MB-435 it was 1620 nM; with SK-MEL-2 melanoma, greater than 100 µM; with SNB-75 CNS it was 2660 nM; in the test with SR leukemia it was 2510 nM. In the test with T-47D breast, the GI50 was 5820 nM. The TGI in the test on BT-549 breast is greater than 100 µM; in the test with MDA-MB-231 breast, greater than 100 µM; in the test on MDA-MB-435 it was 4.32 µM; with SK-MEL-2 melanoma, greater than 100 µM; in the test on SNB-75 CNS, greater than 100 µM; with SR leukemia it was greater than 100 µM. The compound also returned a TGI in the test on T-47D breast greater than 100 µM.

Take `Cn1c(=O)c(Oc2ccc(F)cc2F)cc2cnc(NC3CCC(O)CC3)nc21` (stereo not given): the GI50 with BT-549 breast was greater than 25 µM; in the test on MDA-MB-231 breast it was greater than 25 µM; in the test on MDA-MB-435, greater than 25000 nM; in the test with SK-MEL-2 melanoma it was greater than 25 µM; with SNB-75 CNS, greater than 25000 nM; in the test on SR leukemia, greater than 25000 nM. The GI50 with T-47D breast was greater than 25000 nM. The TGI in the test with BT-549 breast, in the test on MDA-MB-231 breast, in the test with MDA-MB-435, in the test with SK-MEL-2 melanoma, with SNB-75 CNS and in the test on SR leukemia was greater than 25 µM each time. Also, the TGI with T-47D breast is greater than 25 µM.

In the case of `ClCc1ccc(Cn2cnc3nc(Cl)nc(Cl)c32)cc1`, the GI50 is 1.87 µM in the test with BT-549 breast; 0.444 µM in the test with MDA-MB-231 breast; 1710 nM in the test on MDA-MB-435; 1.41 µM in the test with SK-MEL-2 melanoma; 656 nM in the test with SNB-75 CNS; 4160 nM in the test on SR leukemia. For the same compound, in the test with T-47D breast, the GI50 is 1360 nM. Also, the TGI with BT-549 breast is 3.48 µM; with MDA-MB-231 breast, 0.926 µM; in the test with MDA-MB-435, 3.19 µM; in the test with SK-MEL-2 melanoma it was 3.06 µM; with SNB-75 CNS it was 1.48 µM; in the test on SR leukemia, greater than 100 µM. In the test on T-47D breast, this compound returned a TGI of 4.82 µM.

Regarding `CC(C)(CCc1nc2ccccc2[nH]1)C(=O)O`, the TGI with BT-549 breast, in the test on MDA-MB-231 breast, with MDA-MB-435, in the test with SK-MEL-2 melanoma, in the test with SNB-75 CNS and in the test on SR leukemia was greater than 100 µM each time. Moreover, the TGI with T-47D breast was greater than 100 µM.

For `O=C1C(=O)c2c(ccc3ccccc23)-c2ccccc21`, the GI50 is 2.05 µM in the test on BT-549 breast; 1.63 µM in the test on MDA-MB-231 breast; 1590 nM with MDA-MB-435; 1.73 µM with SK-MEL-2 melanoma; 1830 nM with SNB-75 CNS; 2690 nM in the test on SR leukemia. The GI50 in the test on T-47D breast was 1750 nM. In addition, the TGI in the test with BT-549 breast was 4.62 µM; in the test with MDA-MB-231 breast it was 8.08 µM; in the test on MDA-MB-435, 3.52 µM; in the test on SK-MEL-2 melanoma, 3.78 µM; in the test with SNB-75 CNS, 4.03 µM; with SR leukemia, greater than 100 µM. In the test on T-47D breast, this compound showed a TGI of 3.96 µM.

Regarding `Clc1ccc(N=CNc2ccc(-c3nc4ccccc4[nH]3)cc2)cc1`, the GI50 with BT-549 breast is 20.7 µM; in the test with MDA-MB-231 breast, greater than 100 µM; in the test with MDA-MB-435, 6880 nM; in the test with SK-MEL-2 melanoma, 76.6 µM; with SNB-75 CNS, 36100 nM; with SR leukemia, 39600 nM. For the same compound, the GI50 in the test on T-47D breast was 42600 nM. For the same compound, the TGI in the test on BT-549 breast is 57.3 µM; in the test on MDA-MB-231 breast it was greater than 100 µM; in the test on MDA-MB-435, greater than 100 µM; in the test with SK-MEL-2 melanoma, greater than 100 µM; in the test on SNB-75 CNS it was greater than 100 µM; in the test on SR leukemia it was greater than 100 µM. The compound further returned a TGI in the test with T-47D breast greater than 100 µM.

Consider `CC(C)C12CCC3(CCC4C(C)(C(=O)O)CCCC4(C)C3C1)C(CN)C2` (stereo not given), for which the TGI is 95.5 µM in the test with BT-549 breast; greater than 100 µM with MDA-MB-231 breast; greater than 100 µM with MDA-MB-435; greater than 100 µM in the test on SK-MEL-2 melanoma; greater than 100 µM with SNB-75 CNS; 60.1 µM in the test on SR leukemia. Moreover, the TGI in the test with T-47D breast was greater than 100 µM.

In the case of `CC(=O)OC1CCC2(C)C(=CCC3C4CC(CN5CC5)C(=O)C4(C)CCC32)C1` (stereo not given), the GI50 in the test with BT-549 breast is 10.4 µM; in the test with MDA-MB-231 breast, 11.8 µM; with MDA-MB-435 it was 14800 nM; in the test on SK-MEL-2 melanoma, 14 µM; in the test with SNB-75 CNS, 10800 nM; with SR leukemia, 3390 nM. Moreover, in the test with T-47D breast, the GI50 is 914 nM. The TGI with BT-549 breast was determined as 22.9 µM; in the test on MDA-MB-231 breast, 25 µM; with MDA-MB-435, 28.4 µM; in the test with SK-MEL-2 melanoma, 28.2 µM; in the test with SNB-75 CNS, 22.7 µM; in the test with SR leukemia, 13.5 µM. This compound also yielded a TGI with T-47D breast of 2.7 µM.

With `Brc1ccc2c(c1)-c1ccccc1C1=NCCN12`, the GI50 is 1.88 µM in the test on BT-549 breast; 1.73 µM with MDA-MB-231 breast; 1060 nM in the test on MDA-MB-435; 1.87 µM in the test with SK-MEL-2 melanoma; 1530 nM in the test with SNB-75 CNS; 753 nM with SR leukemia. The GI50 in the test with T-47D breast is 2850 nM. For the same compound, the TGI in the test on BT-549 breast came to 6.07 µM; in the test on MDA-MB-231 breast it was 4.29 µM; with MDA-MB-435, 2.45 µM; with SK-MEL-2 melanoma, 4.18 µM; in the test on SNB-75 CNS, 4.15 µM; with SR leukemia, 3.83 µM. The compound also had a TGI in the test with T-47D breast of 18.4 µM.

As for `CN(C)c1ccc(/C=C2\Cc3ccccc3C2=O)cc1Br`, the TGI with DLD-1 colon, in the test with SK-MEL-2 melanoma, in the test on SNB-75 CNS and in the test on SNB-78 CNS was greater than 100 µM each time.

For the compound `C/C(=N\NC(=O)c1ccncc1)c1ccccc1O`, the GI50 with BT-549 breast was 3.79 µM; in the test with MDA-MB-231 breast, 5.65 µM; in the test with MDA-MB-435, 6370 nM; in the test with SK-MEL-2 melanoma it was greater than 100 µM; in the test with SNB-75 CNS it was greater than 100000 nM; in the test on SR leukemia, 1800 nM. The GI50 in the test with T-47D breast was 2240 nM. The TGI with BT-549 breast was 84.7 µM; in the test with MDA-MB-231 breast, greater than 100 µM; in the test with MDA-MB-435, greater than 100 µM; in the test with SK-MEL-2 melanoma, greater than 100 µM; in the test on SNB-75 CNS it was greater than 100 µM; with SR leukemia, greater than 100 µM. Also, the TGI in the test on T-47D breast is greater than 100 µM.
